Key:
[1] = test system: EGFR mutant L858R Ba/F3 cells; assay: Ba/F3 cell proliferation (Cell Titer Glo), EGFR L858R; assay type: cell-based, murine; settings: Mus musculus, BaF3, Ba/F3 cells with EGFR L858R, 72 hours exposure, read-out: L BaF3
Description: (§1) The selectivity between wild-type EGER and EGFR containing one or more mutations as described herein can also be measured using cellular proliferation assays where cell proliferation is dependent on kinase activity. For example, murine Ba/F3 cells transfected with a suitable version of wild-type EGFR (such as VIII; containing a WT EGFR kinase domain), or Ba/F3 cells transfected with L858R/T790M, Del/T790M/L718Q, L858R/T790M/L718Q, L858R/T790M/C797S, Del/T790M/C797S, L858R/T790M/I941R, or Exon 19 deletion/T790M can be used.
(§2) The EGFR mutant L858R Ba/F3 cells have been previously described (Zhou, W., et al. Nature 482, 2009, 1070-1074). […]
(§3) Growth and inhibition of growth was assessed by the Cell Titer Glo assay (Promega, Madison, WI) and was performed according to the manufacturer's instructions. The Cell Titer Glo assay is a luminescence-based method used to determine the number of viable cells based on quantitation of the ATP present, which is directly proportional to the amount of metabolically active cells present. Ba/F3 cells of different EGFR genotypes were exposed to compounds for 72 hours and the number of cells used per experiment was determined empirically as has been previously established (Zhou, et al., Nature 2009). […]

[2] = test system: EGFR L858R/C797S Ba/F3 cells; assay: Ba/F3 cell proliferation (Cell Titer Glo), EGFR L858R/C797S; assay type: cell-based, murine; settings: Mus musculus, BaF3, Ba/F3 cells with EGFR L858R/C797S, 72 hours exposure, read-out: L/C797S
Description: as §1, §2, §3

EC50 [1] [nM] | EC50 [2] [nM] | SMILES
110 | 430 | C=CC(=O)Nc1cc(C(=O)Nc2nc3cccc(C)c3n2[C@@H]2CCCCN(C(C)=O)C2)cs1 [Compound 002]
62 | 173 | C=CC(=O)Nc1csc(C(=O)Nc2nc3cccc(C)c3n2[C@@H]2CCCCN(C(C)=O)C2)c1 [Compound 009]

From patent US20230295137A1, “COVALENT EGFR INHIBITORS AND METHODS OF USE THEREOF” (DANA-FARBER CANCER INSTITUTE, INC., priority 2020, published 2023)
